The experiment concerns the target T1, ITK (Homo sapiens, UniProt Q08881).
T1 sequence (Q08881 1-620): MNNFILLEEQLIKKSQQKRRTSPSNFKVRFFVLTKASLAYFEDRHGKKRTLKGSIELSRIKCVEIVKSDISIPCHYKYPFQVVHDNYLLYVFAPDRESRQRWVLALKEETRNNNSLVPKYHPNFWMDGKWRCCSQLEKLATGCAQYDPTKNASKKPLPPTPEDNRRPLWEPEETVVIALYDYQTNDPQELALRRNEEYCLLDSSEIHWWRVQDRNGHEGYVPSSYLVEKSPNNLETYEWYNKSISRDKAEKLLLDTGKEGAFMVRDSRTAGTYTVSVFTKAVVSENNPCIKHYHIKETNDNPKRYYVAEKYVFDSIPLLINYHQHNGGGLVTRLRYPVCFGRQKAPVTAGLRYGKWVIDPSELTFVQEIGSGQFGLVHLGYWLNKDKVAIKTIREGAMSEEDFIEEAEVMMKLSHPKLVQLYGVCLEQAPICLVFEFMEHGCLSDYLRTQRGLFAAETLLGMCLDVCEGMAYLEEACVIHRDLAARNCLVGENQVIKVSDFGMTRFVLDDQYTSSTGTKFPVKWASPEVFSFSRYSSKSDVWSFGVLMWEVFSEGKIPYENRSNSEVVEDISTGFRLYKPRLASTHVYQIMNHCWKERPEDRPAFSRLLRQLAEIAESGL
As to the kind of experiment: ITK degradation HiBiT assay. It counts as cell-based. Also on record: expressed in transfected cells; host or cells: Molt4 (ATCC CRL-1552), monoclonal clone 1C10, engineered to carry the HiBiT tag. As to conditions: 4 hrs; for Dmax: MOLT-4, C-terminal HiBiT-tagged Molt4 cells. An outline of the steps:
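C-terminal HiBiT-tagged Molt4 cells (clone 1C10) treated 4 h at 32° C with an 11-point, 5-fold compound dilution series (0.5% DMSO). HiBiT lytic detection with LgBiT then luminescence read; % ITK remaining versus concentration fit by four-parameter variable-slope model to give DC50 and Dmax.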
A general note: The HiBiT peptide binds its large partner to form an active luciferase.

Where [1] appears, read: C-terminal HiBiT-tagged Molt4 cells.

As a reminder, the DC50 is the concentration at which degradation of the target reaches its halfway point. In general, Dmax refers to the greatest extent of degradation seen. Lower therefore signals shallow degradation. In turn, `CN(C(=O)CC[C@H]1CCN(c2ccc3c(c2)C(=O)N(C2CCC(=O)NC2=O)C3=O)C1)c1ccc2cc(-c3n[nH]c4c3C[C@@H]3C(F)(F)[C@]3(C)C4)[nH]c2c1` (stereo in doubt) [Compound 67, N-(2-((4aS,5aR)-5,5-difluoro-5a-methyl-1,4,4a,5,5a,6-hexahydrocyclopropafindazol-3-yl)-1H-indol-6-yl)-3-((3R)-1-(2-(2,6-dioxopiperidin-3-yl)-1,3-dioxoisoindolin-5-yl)pyrrolidin-3-yl)-N-methylpropanamide] yielded a Dmax of 75%. Under setting [1], this compound had a DC50 of 2.3 nM.

`CN(C(=O)CC[C@H]1CCN(c2ccc3c(c2)C(=O)N(C2CCC(=O)NC2=O)C3=O)C1)c1ccc2cc(-c3n[nH]c4c3C[C@@H]3C(F)(F)[C@]3(C)C4)[nH]c2c1` (stereo in doubt) [Compound 68]: under setting [1], the DC50 worked out at 0.5 nM and the “HiBiT DMax (%)” value came to 78%.

With `C[C@@H](C(=O)N(C)c1ccc2cc(-c3n[nH]c4c3CCC(C)(C)C4)[nH]c2c1)N1CCN(CC2CCN(c3ccc(C4CCC(=O)NC4=O)cn3)CC2)CC1` (stereo partly drawn) [Compound 10, (2S)—N-(2-(6,6-dimethyl-4,5,6,7-tetrahydro-1H-indazol-3-yl)-1H-indol-6-yl)-2(4-((1-(5-(2,6-dioxopiperidin-3-yl)pyridin-2-yl)piperidin-4-yl)methyl)piperazin-1-yl)-N-methylpropanamide], the DC50 under setting [1] was determined as 0.48 nM.

In turn, `C[C@@H](C(=O)N(C)c1ccc2cc(-c3n[nH]c4c3CCC(C)(C)C4)[nH]c2c1)N1CCN(CC2CCN(c3ccc(N4CCC(=O)NC4=O)cn3)CC2)CC1` [Compound 11, (S)—N-(2-(6,6-dimethyl-4,5,6,7-tetrahydro-1H-indazol-3-yl)-1H-indol-6-yl)-2-(4-((1-(5-(2,4-dioxotetrahydropyrimidin-1(2H)-yl)pyridin-2-yl)piperidin-4-yl)methyl)piperazin-1-yl)-N-methylpropanamide] returned a half-maximal degradation concentration (DC50) under setting [1] of 2 nM.

`Cn1c(=O)n(C2CCC(=O)NC2=O)c2ccc(N3CCC(CN4CCC5(CC4)CCN(c4ccc6cc(-c7n[nH]c8c7CCC(C)(C)C8)[nH]c6c4)C5=O)CC3)cc21` (stereo not shown) [Compound 14, 3-(5-(4-((2-(2-(6,6-dimethyl-4,5,6,7-tetrahydro-1H-indazol-3-yl)-1H-indol-6-yl)-1-oxo-2,8-diazaspiro[4.5]decan-8-yl)methyl)piperidin-1-yl)-3-methyl-2-oxo-2,3-dihydro-1H-benzo[d]imidazol-1-yl)piperidine-2,6-dione] gave a Dmax of 89%. Under setting [1], this compound came in with a DC50 of 0.16 nM.

For `C[C@@H](C(=O)N(C)c1ccc2cc(-c3n[nH]c4c3C[C@@H]3C(F)(F)[C@]3(C)C4)[nH]c2c1)N1CCN(CC2CCN(c3ccc(N4CCC(=O)NC4=O)cn3)CC2)CC1` [Compound 18, (S)—N-(2-((4aS,5aR)-5,5-difluoro-5a-methyl-1,4,4a,5,5a,6-hexahydrocyclopropa[f]indazol-3-yl)-1H-indol-6-yl)-2-(4-((1-(5-(2,4-dioxotetrahydropyrimidin-1(2H)-yl)pyridin-2-yl)piperidin-4-yl)methyl)piperazin-1-yl)-N-methylpropanamide], half-maximal degradation under setting [1] (DC50) was put at 0.004 nM.

In turn, `C[C@@]12Cc3[nH]nc(-c4cc5ccc(N6CCC7(CCN(CC8CCN(c9ccc(C%10CCC(=O)NC%10=O)cn9)CC8)CC7)C6=O)cc5[nH]4)c3C[C@@H]1C2(F)F` (stereo partly drawn) [Compound 19, 3-(6-(4-((2-(2-((4aS,5aR)-5,5-difluoro-5a-methyl-1,4,4a,5,5a,6-hexahydrocyclopropa[f]indazol-3-yl)-1H-indol-6-yl)-1-oxo-2,8-diazaspiro[4.5]decan-8-yl)methyl)piperidin-1-yl)pyridin-3-yl)piperidine-2,6-dione] yielded a DC50 under setting [1] of 0.27 nM.

`CN(C(=O)CCC1CCN(c2ccc(C3CCC(=O)NC3=O)cn2)CC1)c1ccc2cc(-c3n[nH]c4c3C[C@@H]3C(F)(F)[C@]3(C)C4)[nH]c2c1` (stereo partly drawn) [Compound 21, N-(2-((4aS,5aR)-5,5-difluoro-5a-methyl-1,4,4a,5,5a,6-hexahydrocyclopropa[f]indazol-3-yl)-1H-indol-6-yl)-3-(1-(5-(2,6-dioxopiperidin-3-yl)pyridin-2-yl)piperidin-4-yl)-N-methylpropanamide] returned a DC50 under setting [1] of 0.01 nM.

With `C[C@@H](C(=O)N(C)c1ccc2cc(-c3n[nH]c4c3CCC(C)(C)C4)[nH]c2c1)N1CCN(C[C@H]2CCN(c3ccc4c(c3)C(=O)N(C3CCC(=O)NC3=O)C4=O)C2)CC1` (stereo partly drawn) [Compound 33, (2S)—N-(2-(6,6-dimethyl-4,5,6,7-tetrahydro-1H-indazol-3-yl)-1H-indol-6-yl)-2-(4-(((3R)-1-(2-(2,6-dioxopiperidin-3-yl)-1,3-dioxoisoindolin-5-yl)pyrrolidin-3-yl)methyl)piperazin-1-yl)-N-methylpropanamide], the Dmax came to 85%. The DC50 under setting [1] came out at 3.4 nM.

Compound `C[C@@]12Cc3[nH]nc(C(=O)Nc4cnn(CC5CN(C(=O)C6CN(C7CCN(c8ccc9c(c8)C(=O)N(C8CCC(=O)NC8=O)C9=O)CC7)C6)C5)c4)c3C[C@@H]1C2(F)F` (stereo partly drawn) [Compound 42, (4aS,5aR)-N-(1-((1-(1-(1-(2-(2,6-dioxopiperidin-3-yl)-1,3-dioxoisoindolin-5-yl)piperidin-4-yl)azetidine-3-carbonyl)azetidin-3-yl)methyl)-1H-pyrazol-4-yl)-5,5-difluoro-5a-methyl-1,4,4a,5,5a,6-hexahydrocyclopropa[f]indazole-3-carboxamide] gave a maximal degradation (Dmax) of 93%. Under setting [1], this compound registered a DC50 of 2.9 nM.

Compound `CC1(C)CCc2c(-c3cc4ccc(C(=O)N5CCN(CC6CCN(c7ccc(C8CCC(=O)NC8=O)cn7)CC6)CC5)cc4[nH]3)n[nH]c2C1` (stereo not shown) [Compound 47, 3-(6-(4-((4-(2-(6,6-dimethyl-4,5,6,7-tetrahydro-1H-indazol-3-yl)-1H-indole-6-carbonyl)piperazin-1-yl)methyl)piperidin-1-yl)pyridin-3-yl)piperidine-2,6-dione] displayed a DC50 under setting [1] of 4.6 nM. In other words, the single-digit nanomolar range.

Compound `C[C@@]12Cc3[nH]nc(C(=O)Nc4cnn(CC5CN(C(=O)C6CN(c7ccc(C8CCC(=O)NC8=O)cn7)C6)C5)c4)c3C[C@@H]1C2(F)F` (stereo partly drawn) [Compound 49, (4aS,5aR)-N-(1-((1-(1-(5-(2,6-dioxopiperidin-3-yl)pyridin-2-yl)azetidine-3-carbonyl)azetidin-3-yl)methyl)-1H-pyrazol-4-yl)-5,5-difluoro-5a-methyl-1,4,4a,5,5a,6-hexahydrocyclopropa[f]indazole-3-carboxamide] registered a DC50 under setting [1] of 3.9 nM.

As for `C[C@@]12Cc3[nH]nc(C(=O)Nc4cnn(CC5CN(C(=O)C6CCN(c7ccc(C8CCC(=O)NC8=O)cn7)CC6)C5)c4)c3C[C@@H]1C2(F)F` (stereo partly drawn) [Compound 50, (4aS,5aR)-N-(1-((1-(1-(5-(2,6-dioxopiperidin-3-yl)pyridin-2-yl)piperidine-4-carbonyl)azetidin-3-yl)methyl)-1H-pyrazol-4-yl)-5,5-difluoro-5a-methyl-1,4,4a,5,5a,6-hexahydrocyclopropa[f]indazole-3-carboxamide], half-maximal degradation under setting [1] (DC50) was put at 0.21 nM.

As for `CN(C(=O)CC1CCN(CC2CCN(c3ccc(C4CCC(=O)NC4=O)cn3)CC2)CC1)c1ccc2cc(-c3n[nH]c4c3C[C@@H]3C(F)(F)[C@]3(C)C4)[nH]c2c1` (stereo partly drawn) [Compound 73, N-(2-((4aS,5aR)-5,5-difluoro-5a-methyl-1,4,4a,5,5a,6-hexahydrocyclopropa[f]indazol-3-yl)-1H-indol-6-yl)-2-(1-((1-(5-(2,6-dioxopiperidin-3-yl)pyridin-2-yl)piperidin-4-yl)methyl)piperidin-4-yl)-N-methylacetamide], under setting [1], the DC50 worked out at 1.6 nM.

These data come from patent US20240279202A1 (NURIX THERAPEUTICS, INC., priority 2021, published 2024).
